{
  "source": "paper PMC11467779",
  "about": "“New anti-ovarian cancer quinolone derivatives acting by modulating microRNA processing machinery” (RSC Medicinal Chemistry, 2024)",
  "key": {"[1]": {"tested_on": "WT HCCLM3 cells", "test": "Antiproliferative effect on WT HCCLM3 cells (CCK-8)", "assay_type": "cell-based, human", "settings": "30 μM, 48 hours", "procedure": "(§1) HCCLM3 and SK-Hep-1 cells were seeded into 96-well plates at a density of 10 000 cells per well and allowed to adhere overnight. Subsequently, the cells were treated with the following substances: 0.1% DMSO as the negative control, various concentrations of the test compounds, and 125 μM enoxacin as the positive control. After 48 h of incubation, the original culture medium was removed, and the cells were washed twice with PBS. Then, 100 μL of DMEM culture medium containing 10% CCK-8 (Bimake, USA) was added to each well. The plates were incubated for 30 minutes at 37 °C. To determine the […], measurements were taken at a wavelength of 450 nm using a Varioskan from Thermo Fisher Scientific."}, "[2]": {"tested_on": "A549 (lung carcinoma)", "test": "Proliferation of A549 cells (trypan blue count)", "assay_type": "cell-based, human", "settings": "30 μM, 72 hours", "procedure": "(§2) A2780 and SKOV-3 cells were treated with 50 μM of 33 for 72 h before RNA and protein extraction and expression analyses. A2780 and A2780 CIS were treated with 33 (30 μM) and/or cisplatin (1 μM, Sigma-Aldrich) for 48 hours while MCF-7, A549 and HCT-116 were treated with 33 (30 μM) for 72 hours. Total cell number and viability have been assessed using Trypan Blue Solution (Thermo Fisher Scientific) and Countess™ 3 Automated Cell Counter (Thermo Fisher Scientific)."}, "[3]": {"tested_on": "miR-21-5p biogenesis", "test": "miR-21-5p luciferase reporter (psi-R21 / psi-CTRL) in HeLa cells", "assay_type": "cell-based, human", "procedure": "HeLa cells were transfected with 10 ng of psi-R21 or psi-CTRL using Lipofectamine™ 2000 (Thermo Fisher Scientific) and after 48 hours were treated with either enoxacin or 33 at 20 μM and 50 μM. After 6 hours Renilla luciferase (RLuc) and firefly luciferase (FLuc) activities were measured using the Dual-Luciferase® Reporter Assay System (Promega), following the manufacturer's instructions, and GloMax® Discover Microplate Reader (Promega).\nThe binding site for miR-21 was cloned into psiCHECK™-2 Vector (Promega), downstream the Renilla cDNA, by inverted PCR using the following oligonucleotides: 21MRE_FW […]; 21MRE_REV […]. The resulting construct was named psi-R21."}, "[4]": {"tested_on": "distinct OC cell lines", "test": "Anti-OC activity against distinct cell lines (GI50 range)", "assay_type": "cell-based", "settings": "Homo sapiens; range over the OC cell lines tested", "procedure": "Once cell adhesion had been promoted, the compounds were added to the culture medium. After 72 hours of treatment, the cells were counted, and the data analyzed by linear regression. Each experiment was carried out three times in triplicate and three separate cell counts were made for each sample.\nAfterwards, the concentration range was narrowed to the relative value obtained in the first evaluation in order to obtain an accurate value."}, "[5]": {"tested_on": "MCF-7 (breast cancer)", "test": "Proliferation of MCF-7 cells (trypan blue count)", "assay_type": "cell-based, human", "settings": "30 μM, 72 hours", "procedure": "as §2"}, "[6]": {"tested_on": "WT SK-Hep-1 cells", "test": "Antiproliferative effect on WT SK-Hep-1 cells (CCK-8)", "assay_type": "cell-based, human", "settings": "48 hours", "procedure": "as §1"}, "[7]": {"tested_on": "A2780 cells", "test": "A2780 cell number, cell death and apoptosis markers (trypan blue, Western blot)", "assay_type": "cell-based, human", "excerpt": "[…] […] Total cell number and viability have been assessed using Trypan Blue Solution (Thermo Fisher Scientific) and Countess™ 3 Automated Cell Counter (Thermo Fisher Scientific).\nLysates were loaded on 4–12% bis–tris-acrylamide gel (Life Technologies) and transferred to a nitrocellulose membrane. The membrane was blocked in 5% milk and hybridized with α-TRBP (15753-1-AP Proteintech), α-GAPDH (sc-25778, Santa Cruz Biotechnology), α-c-PARP (Bioss Antibodies, BSM-52408R), α-BCLXL (mAb #2764, Cell Signaling Technology) and α-β-actin (A3854, Sigma) antibodies. All the images were captured using the ChemiDocTM Touch Imaging System (Bio-Rad), and the densitometric analyses were performed using the associated Image Lab software (Bio-Rad)."}, "[8]": {"tested_on": "SKOV-3 cell line", "test": "Antiproliferative effect against the SKOV-3 cell line (GI50, cell count)", "assay_type": "cell-based, human", "procedure": "(§3) SKOV-3, A2780 and A2780 CIS were cultured and maintained, as previously described,[50] at 37 °C in RPMI 1640 medium (Euroclone) supplemented with 10% fetal bovine serum (FBS; Euroclone), L-glutamine and penicillin/streptomycin (SIGMA-ALDRICH). OVCA433, HEK-293T, HeLa, HCCLM3, SK-Hep-1, MCF-7, A549 and HCT-116 cells were maintained in DMEM medium (Euroclone) containing 10% FBS (Euroclone), L-glutamine and penicillin/streptomycin (SIGMA-ALDRICH). Wi-38 cells were cultured in DMEM medium (Euroclone) supplemented with 10% FBS (Euroclone), L-glutamine and penicillin/streptomycin (SIGMA-ALDRICH), and 1% non-essential amino acids (NEAA; Euroclone). The cultures were maintained in a constant temperature incubator at 37 °C with 5% CO2. […] Once cell adhesion had been promoted, the compounds were added to the culture medium. After 72 hours of treatment, the cells were counted, and the data analyzed by linear regression. Each experiment was carried out three times in triplicate and three separate cell counts were made for each sample. […] Afterwards, the concentration range was narrowed to the relative value obtained in the first evaluation in order to obtain an accurate value."}, "[9]": {"tested_on": "cisplatin-resistant A2780 cells (A2780 CIS)", "test": "Viable cells of cisplatin-resistant A2780 (A2780 CIS) treated with 33, cisplatin or both", "assay_type": "cell-based, human", "settings": "48 hours", "procedure": "as §2"}, "[10]": {"tested_on": "HCT-116 (colon cancer)", "test": "Proliferation of HCT-116 cells (trypan blue count)", "assay_type": "cell-based, human", "settings": "30 μM, 72 hours", "procedure": "as §2"}, "[11]": {"biological_target": "T1, hTopI (Homo sapiens, UniProt P11387)", "T1 construct": "endogenous in cells", "T1 sequence (P11387 whole entry)": "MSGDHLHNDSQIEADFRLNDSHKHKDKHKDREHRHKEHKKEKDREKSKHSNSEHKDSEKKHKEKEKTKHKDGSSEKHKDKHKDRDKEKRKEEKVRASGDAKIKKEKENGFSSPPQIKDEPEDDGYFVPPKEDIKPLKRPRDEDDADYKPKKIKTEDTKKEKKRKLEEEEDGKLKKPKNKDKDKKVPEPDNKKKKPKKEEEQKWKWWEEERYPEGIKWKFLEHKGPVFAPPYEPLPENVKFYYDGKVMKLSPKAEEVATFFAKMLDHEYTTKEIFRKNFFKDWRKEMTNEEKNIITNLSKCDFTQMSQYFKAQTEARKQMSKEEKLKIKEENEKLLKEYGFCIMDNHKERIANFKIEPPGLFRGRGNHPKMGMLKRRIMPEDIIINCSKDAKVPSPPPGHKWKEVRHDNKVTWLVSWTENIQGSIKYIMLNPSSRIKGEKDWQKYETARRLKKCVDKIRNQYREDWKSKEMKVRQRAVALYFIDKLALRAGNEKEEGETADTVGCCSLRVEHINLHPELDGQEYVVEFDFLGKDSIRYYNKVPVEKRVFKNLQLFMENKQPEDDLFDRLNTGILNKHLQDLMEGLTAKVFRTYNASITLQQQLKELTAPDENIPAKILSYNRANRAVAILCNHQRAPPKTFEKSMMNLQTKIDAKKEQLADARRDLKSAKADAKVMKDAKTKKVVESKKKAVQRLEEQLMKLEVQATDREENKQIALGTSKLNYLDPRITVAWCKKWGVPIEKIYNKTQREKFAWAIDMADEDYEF", "test": "Detection of hTOP1 cleavage complexes (cleavage assay)", "assay_type": "cell-based", "settings": "100 μM", "procedure": "After compound treatments, 1 × 10^6 human cells in 35 mm dish per sample were washed with 1× phosphate-buffered saline (PBS) and lysed with 600 μL of DNAzol (Invitrogen), followed by precipitation with 300 μL of 200 proof ethanol. The nucleic acids were collected, washed with 75% ethanol, resuspended in 200 μL of TE buffer, and then heated at 65 °C for 15 min, followed by shearing with sonication (40% output for 10 s pulse and 10 s rest for four times). The samples were centrifuged at 15 000 rpm for 5 min at 4 °C, and the supernatant were collected. 1 μL of each sample was removed for spectrophotometric measurement of absorbance at 260 nm to quantitate DNA content (NanoDrop). 2 μg of each sample was subjected to slot-blot for immunoblotting using anti-hTOP1 antibody (BD Pharmingen, 556597) and anti-hTOP2α antibody (Santa Cruz biotechnology, 365916).[51]"}, "[12]": {"tested_on": "OVCA433", "test": "Antiproliferative effect against OVCA433 (GI50)", "assay_type": "cell-based", "settings": "Homo sapiens, 72 hours of treatment, cell count", "procedure": "as §3"}},
  "note": "“Also recorded” adds a separate entry of the source.",
  "data": [
    {"compound": "O=C(O)c1cn(C2CC2)c2cc(N3CCc4ccccc4C3)c(F)cc2c1=O", "note": "[Compound 33, 1-Cyclopropyl-7-(3,4-dihydroisoquinolin-2(1H)-yl)-6-fluoro-4-oxo-1,4-dihydroquinoline-3-carboxylic acid]", "values": [
      {"measurement": "reduction of viability of WT HCCLM3 cells", "setting": "[1]", "value": "about 50%"},
      {"measurement": "effect on A549 cell proliferation", "setting": "[2]", "value": "significant inhibitory effect on cell proliferation"},
      {"measurement": "miRNA enhancing effect: Renilla luciferase activity, psi-R21 construct", "setting": "[3]; 50 μM, 6 hours", "value": "decrease in Renilla luciferase activity"},
      {"measurement": "Renilla luciferase activity, control construct psi-CTRL", "setting": "[3]; construct lacking the miR-21-5p binding site", "value": "no significant variation"},
      {"measurement": "GI50", "setting": "[4]", "value": "13.5 to 31", "unit": "µM"},
      {"measurement": "effect on MCF-7 cell proliferation", "setting": "[5]", "value": "significant inhibitory effect on cell proliferation"},
      {"measurement": "antiproliferative effect on WT TRBP SK-Hep-1 cells", "setting": "[6]; 30 μM", "value": "less evident"},
      {"measurement": "viability of WT SK-Hep-1 cells", "setting": "[6]; 50 μM", "value": "significantly reduced the viability"},
      {"measurement": "Bcl-XL protein in A2780 cells", "setting": "[7]; 30 μM, 72 hours, Western blot", "value": "downregulation"},
      {"measurement": "cleaved PARP1 (c-PARP) levels in A2780 cells", "setting": "[7]; 30 μM, 72 hours, Western blot", "value": "increased levels of cleaved PARP1"},
      {"measurement": "percentage of dead A2780 cells", "setting": "[7]; 30 μM, 72 hours, trypan blue", "value": "increased to a great extent"},
      {"measurement": "total number of A2780 cells", "setting": "[7]; 30 μM, 72 hours, trypan blue", "value": "greatly reduced"},
      {"measurement": "effect of 33 in combination with cisplatin on A2780 proliferation", "setting": "[7]; 33 30 μM + cisplatin 1 μM, 48 hours", "value": "more pronounced inhibitory effect on A2780 proliferation"},
      {"measurement": "GI50", "setting": "[8]; Homo sapiens, SK-OV-3, 72 h, 50% cell growth inhibition, 72 hours of treatment, cell count, ND = activity not dose dependent", "value": "13.5 ± 1.45", "unit": "µM"},
      {"measurement": "GI50 SKOV-3, fold lower than enoxacin", "setting": "[8]; versus enoxacin", "value": "about 9 fold"},
      {"measurement": "sensitivity of A2780 CIS and A2780 to 33 alone", "setting": "[9]; 30 μM", "value": "equal sensitivity"},
      {"measurement": "effect of 33 in combination with cisplatin on A2780 CIS", "setting": "[9]; 33 30 μM + cisplatin 1 μM", "value": "synergistic effect; also recorded: sensitized A2780 CIS to cisplatin"},
      {"measurement": "effect on HCT-116 cell proliferation", "setting": "[10]", "value": "significant inhibitory effect on cell proliferation"},
      {"measurement": "trapping/inhibition of hTopI (cleavage assay)", "setting": "[11]", "value": "no inhibition or trapping activity"},
      {"measurement": "GI50", "setting": "[12]", "value": "31 ± 6.75", "unit": "µM"}
    ]}
  ]
}
